This assay deals with E coli JT39. The experiment in a line: Antibacterial Activity, standard MIC test. Format: cell-based. The note with it: Escherichia coli, compound alone. From the text: Using conventional methods the following results were obtained in a standard MIC test: […]

For 1 molecule, MIC results are on record in patent US4652560A, “A-deoxy-a-aza derivatives of clavulanic acid, a process for their preparation and their use” (Beecham Group p.l.c., priority 1979, dated 1987).

For the molecule `O=C(O)CCCCCCCCCCNC/C=C1\O[C@@H]2CC(=O)N2[C@H]1C(=O)O` [11 (b), 9-N-(10'-Carboxydecyl)aminodeoxyclavulanic acid], the MIC is greater than 500 µg/mL.
